From patent US10786505B2, “Administration of NEDD8-activating enzyme inhibitor and chemotherapeutic agents” (Millennium Pharmaceuticals, Inc., priority 2013, dated 2020)

How the values were obtained:
NCI-H82 = test: In vitro cell viability combination assay (CellTiter-Glo); settings: agent combined with MLN4924, vehicle DMSO, 96 hr
Description: (§9) General Method: Cells are grown in their respective growth media, supplemented with 10% fetal bovine serum unless otherwise noted. […] A portion of each plate is used for positive controls (no agent is added), while another portion of each plate is used for negative controls (no cells are added). Viability is assessed with CellTiter-Glo® Cell Viability reagent used according to manufacturer's instructions (Promega). Luminescence is measured using a LEADseeker imaging system (GE Healthcare).
(§10) The viability data is normalized separately for each plate by scaling the data so that the median of the negative controls is 0 and the median of the positive controls is 100. More formally,
(§11) [formula] where Vi is the normalized viability of the i^th well, Ui is the raw viability measurement, median (U) is the median of the negative controls, and median (U+) is the median of the positive controls. After normalization, the controls are discarded.
(§12) where E1, E2, E3, E4, I1, I2, I3, S1, S2, S3, and S4 are parameters, CA and CB are the respective concentrations of agents A and B, and V is the normalized viability measurement. It is assumed that the error values are independent and identically distributed normal random variables.
(§13) The Combination Index is computed based on an isobologram, which is a slice of the dose response surface with constant viability. For the present analysis, the 50% isobologram, which is the dose contour that has 50% viability, is used. […] Since the choice of (DA, DB) can be arbitrary, the constraint DA/DB=EC50A/EC50B is used.
(§14) In such cases, Nonlinear Blending can be used as an alternative measure of synergy or additivity. Nonlinear Blending is found by considering a slice of the dose response surface that intersects both concentration axes and runs parallel to the viability axis. Let VA and VB be the viability where the slice intersects the drug A and B axes, respectively. Let Vmax and Vmin be the maximum and minimum viabilities along the slice. Let NLBS=min(VA,VB)−Vmin NLBA=Vmax−max(VA,VB) Define the Nonlinear Blending value to be NLBS if NLBS>NLBA and −NLBA otherwise.
(§15) After completing the analysis of individual plates, the results are combined across the replicates. For a given measure and a set of replicates, the overall mean and standard error are computed using weighted averaging. A null mean, which corresponded to an additive effect, is then compared with the overall mean. The null mean is 1 for the Combination Index and 0 for Nonlinear Blending. Next, a two sized Z-test is performed based on the estimated mean and standard error. This produces a p-value for each measure and each cell line.
(§16) After computing the mean, standard error, and p-value for each set of replicates, these values require interpretation. Thus, a standard procedure is used to produce a classification (synergy, additivity, subadditivity, antagonism, or inconclusive) in each case. If the Combination Index exists for more than half of the replicates, then these measures are used to make the classification.
(§17) Consider the case where the Combination Index is used to make the classification. If the p-value is greater than 0.05, the estimate for the Combination Index is not statistically different from 1. However, if the standard error is also very large, then the estimate is too uncertain to be informative. […] Otherwise, the classification is “Additivity”. When the p-value is less than 0.05, the estimate for the Combination Index is statistically different from 1. However, if the mean is still close to 1, then the difference is not of practical significance. Thus, the result is classified based on the mean. A mean in the range (0.8, 1.2) is considered close enough to 1 to be classified as Additivity. A mean in the range (0, 0.8) is considered low enough to be classified as Synergy. […] The threshold value of 2 can be derived from the definition of the Combination Index.

NCI-H510 = test: as above; settings: agent combined with MLN4924, vehicle DMSO, 96 hr
Description: as §9, §10, §11, §12, §13, §14, §15, §16, §17

A549 = test: as above; settings: 72 hr
Description: as §9, §10, §11, §12, §13, §14, §15, §16, §17

NCI-H69 xenograft model = test: Combination of cisplatin and MLN4924 in NCI-H69 xenograft model; assay type: in vivo, mice; settings: 4 mg/kg Cisplatin Q4Dx3 IP
Description: (§1) NCI-H69 or NCI-H82 small cell lung tumor fragments (30- to 40-mg) are implanted into the subcutaneous space in the area of the right flank of NCr nu/nu mice (7-10 weeks, Charles River Laboratories, Inc, Frederick Md. or Wilmington, Mass.) using a 12-gauge trocar.
(§2) Tumors are measured twice weekly using a vernier caliper. Tumor volumes are calculated using standard procedures (0.5×(length×width^2)). […] Tumor size and body weight are measured approximately twice a week for the duration of the study. Mice are euthanized when their tumor volume reached 10% of their body weight, or when the average tumor volume of a treatment or control group reached approximately 2000 mm^3. Tumor growth continued to be monitored after the dosing period in some studies. Average tumor volume is reported as a function of time for selected groups of selected studies in Figures A, B, and C.
(§3) Measurements from day 0 to 18, 21 or 22 are analyzed as specified in Tables 4-9. All tumor volumes have a value of 1 added to them before log10 transformation. For each animal, the log tumor volume at day 0 is subtracted from the log tumor volume on the subsequent days. This difference vs. time is used to calculate an area under the curve (AUC) for each animal using the trapezoid rule. […] The synergy score for the combination of agents A and B is defined as 100*(mean(AUCAB)−mean(AUCA)−mean(AUCB)+mean(AUCctl))/mean(AUCctl): where AUCAB, AUCA, AUCB, and AUCctl are the AUC values for animals in the combination group, the A group, the B group, and the control group, respectively. The standard error of the synergy score is computed based on the variation in the AUC values among the animals. […] If the P-value is above 0.05, then the combination is considered to be additive. If the P-value is below 0.05, and the synergy score is less than zero, then the combination is considered to be synergistic. […] Otherwise, the combination is classified as antagonistic.

NCI-H82 xenograft model = test: Combination of cisplatin and MLN4924 in NCI-H82 xenograft model; assay type: in vivo, mice
Description: as §1, §2, §3

HCT116 = test: In vitro cell viability combination assay (CellTiter-Glo); settings: 48 hr
NCI-H69 = test: as above; assay type: cell-based; settings: agent combined with MLN4924, vehicle DMSO, 96 hr
Excerpt: (§4) After normalization, the controls are discarded.
(§5) Otherwise, the classification is “Additivity”.

NCI-H209 = test: as above; settings: agent combined with MLN4924, vehicle DMSO, 96 hr
Description: as §9, §10, §11, §12, §13, §14, §15, §16, §17

LU1143 xenograft model = test: Combination of docetaxel or carboplatin and MLN4924 in LU1143 xenograft model; assay type: in vivo, mice; settings: 10 mg/kg docetaxel QW IV
Description: (§6) Docetaxel (Henry Schein, Inc., Pittsburgh Pa., Qilu Pharmaceutical Co., Ltd., Jinan, Shandong, China, and Sanofi-Aventis) is formulated in 0.9% saline and administered by intravenous injection (IV) once weekly (QW) at 5 mg/kg or 10 mg/kg.
(§7) Carboplatin (CARBOplatin Injection, Hospira, Inc., Qilu Pharmaceutical Co., Ltd. Jinan, Shandong, China, and Teva Gry-Pharma GmbH, Ulm, Germany) is formulated in 0.9% saline and administered by IP injection once weekly (QW) at 50 mg/kg. The once weekly schedule is also described as every 7 days (Q7D).
as §2
Measurements from day 0 to 18, 21 or 22 are analyzed as specified in Tables 4-9. All tumor volumes have a value of 1 added to them before log10 transformation. For each animal, the log tumor volume at day 0 is subtracted from the log tumor volume on the subsequent days. This difference vs. time is used to calculate an area under the curve (AUC) for each animal using the trapezoid rule. […] The synergy score for the combination of agents A and B is defined as 100*(mean(AUCAB)−mean(AUCA)−mean(AUCB)+mean(AUCctl))/mean(AUCctl): where AUCAB, AUCA, AUCB, and AUCctl are the AUC values for animals in the combination group, the A group, the B group, and the control group, respectively. The standard error of the synergy score is computed based on the variation in the AUC values among the animals. […] If the P-value is above 0.05, then the combination is considered to be additive. […]

[1] = system: PHTX02B breast xenograft model; test: Combination of docetaxel and MLN4924 in PHTX02B xenograft model; assay type: in vivo, mice
Excerpt: The PHTX02B breast xenograft model was established from a patient-derived tumor collected during surgery from a person with invasive ductal carcinoma classified as triple negative breast cancer (ER−/PR−/Her2−) by IHC. PHTX02B tumor fragments (approximately 2×2×3 mm^3) are implanted into the subcutaneous space in the right dorsal flank of female SCID-NOD mice (age 5-7 weeks, Jackson Laboratory, Bar Harbor, Me.) using a 13-gauge trocar.
as §6, §2, §3

LXFE409 xenograft model = test: Combination of docetaxel or carboplatin and MLN4924 in LXFE409 xenograft model; assay type: in vivo, mice
Description: LXFE409 squamous non small cell lung cancer tumor fragments are implanted into the subcutaneous space in the flank of female NMRI nu/nu mice (5-7 weeks, Janvier Labs, Saint Berthevin, France).
as §6, §7, §2, §3

[2] = system: NCI-H1650 xenograft model; test: Combination of docetaxel and MLN4924 in NCI-H1650 xenograft model; assay type: in vivo, mice
Excerpt: NCI-H1650 (2×10^6) tumor cells in RPMI-1640 media are mixed with an equal volume of Matrigel (BD Biosciences) and aseptically injected into the subcutaneous space in the right dorsal flank of Balb/c Nude mice (age 4-6 weeks, Shanghai SINO-British SIPPR/BK Lab Animal Ltd.) using a 25-gauge needle.
as §6, §2, §3

NCI-H526 = test: In vitro cell viability combination assay (CellTiter-Glo); settings: agent combined with MLN4924, vehicle DMSO, 96 hr
Description: as §9, §10, §11, §12, §13, §14, §15, §16, §17

[3] = system: PHTX249Pa xenograft model; test: Combination of gemcitabine and MLN4924 in PHTX249Pa xenograft model; assay type: in vivo, mice
Description: (§8) The PHTX249 Pa pancreatic xenograft model was established from a patient-derived tumor collected during surgery from a person with pancreatic adenocarcinoma. […] Gemcitabine (Gemzar, Henry Schein, Inc, Pittsburgh Pa., and Myoderm Medical, Norristown, Pa.) is formulated in 0.9% saline and administered by intraperitoneal injection (IP) q3Dx4 (every 3 days for a total of 4 doses) at 2.5 mg/kg or 10 mg/kg, or by IV injection twice weekly (BIW) at 20 mg/kg IVU. […] Tumors are measured twice weekly using a vernier caliper. […] Tumor size and body weight are measured approximately twice a week for the duration of the study. […] Tumor growth continued to be monitored after the dosing period in some studies. […] Average tumor volume is reported as a function of time for selected groups of selected studies in Figures A, B, and C. Measurements from day 0 to 18, 21 or 22 are analyzed as specified in Tables 4-9. […] For each animal, the log tumor volume at day 0 is subtracted from the log tumor volume on the subsequent days. This difference vs. time is used to calculate an area under the curve (AUC) for each animal using the trapezoid rule. In instances when an animal in a treatment group is removed early from the study, the last observed tumor value is carried forward through all subsequent time points. […] The standard error of the synergy score is computed based on the variation in the AUC values among the animals. […] Otherwise, the combination is classified as antagonistic.

PHTX02B xenograft model = test: Combination of gemcitabine and MLN4924 in PHTX02B xenograft model; assay type: in vivo, mice
Description: as §8, with “PHTX02B breast” for “PHTX249 Pa pancreatic”, “invasive ductal carcinoma classified as triple negative breast cancer (ER-/PR-/Her2-) by IHC.” for “pancreatic adenocarcinoma.”

BxPC3 = test: In vitro cell viability combination assay (CellTiter-Glo); assay type: cell-based; settings: agent combined with MLN4924, vehicle DMSO, 72 hr
Excerpt: as §4, §5

PANC1 = test: as above; assay type: cell-based; settings: agent combined with MLN4924, vehicle DMSO, 72 hr
Excerpt: as §4, §5

MIA PaCa-2 = test: as above; assay type: cell-based; settings: agent combined with MLN4924, vehicle DMSO, 72 hr
Excerpt: as §4, §5

[4] = agent combined with MLN4924, vehicle DMSO
[5] = agent combined with MLN4924, vehicle PBS

SMILES | Combination Index (NCI-H82) | Nonlinear Blending (NCI-H82) | Nonlinear Blending (NCI-H510) | Combination Index (A549; [4]) | Nonlinear Blending (A549; [4]) | Nonlinear Blending (A549; [5]) | Combination Index (HCT116; [4]) | Nonlinear Blending (HCT116; [4]) | Nonlinear Blending (HCT116; [5]) | Nonlinear Blending (NCI-H69) | Combination Index (NCI-H209) | Nonlinear Blending (NCI-H209) | Nonlinear Blending (NCI-H526) | further results
N.N.[Cl][Pt][Cl] [cisplatin] | 0.81 ± 0.07 | 10 ± 2 | 20 ± 3 | 0.65 ± 0.03 | 11 ± 5 | 10 ± 1 | 0.76 ± 0.02 | 21 ± 1 | 14 ± 6 | −7 ± 3 | 1.28 ± 0.08 | −15 ± 3 |  | Combination Index (A549; [5]): 0.75 ± 0.05; average tumor volume day 22 (NCI-H69 xenograft model): 213.6 mm^3; average tumor volume day 22 (NCI-H82 xenograft model; 2 mg/kg cisplatin Q4Dx3 IP): 628.7 mm^3; average tumor volume day 22 (NCI-H82 xenograft model; 4 mg/kg cisplatin Q4Dx3 IP): 445.2 mm^3; Combination Index (HCT116; [5]): 0.76 ± 0.09; Combination Index (NCI-H69): 1.28 ± 0.2
CC(=O)O[C@@]12CO[C@@H]1C[C@H](O)[C@@]1(C)C(=O)[C@H](O)C3=C(C)[C@@H](OC(=O)[C@H](O)[C@@H](NC(=O)OC(C)(C)C)c4ccccc4)C[C@@](O)([C@@H](OC(=O)c4ccccc4)[C@H]21)C3(C)C [docetaxel] | 1.45 ± 0.09 | −11 ± 2 | −13 ± 4 | 1.00 ± 0.1 | 1 ± 1 |  | 1.01 ± 0.09 | 7 ± 2 |  |  | 1.27 ± 0.09 | −16 ± 5 | −23 ± 3 | average tumor volume day 21 (LU1143 xenograft model): 498.9 mm^3; Combination Index (NCI-H510): 1.15 ± 0.08; tumor growth during the treatment period (in words) ([1]; PHTX02B breast xenograft, FIG. 1, MLN4924 SC 60 mg/kg BID 5 days on/5 days off, docetaxel 5 mg/kg IV QW, single agents or their combination): inhibited tumor growth compared to the control vehicle group; average tumor volume day 21 ([1]; PHTX02B xenograft, 5 mg/kg docetaxel QW IV): 736.3 mm^3; tumor course after the treatment period, to end of study on day 95 (in words) (LXFE409 xenograft model; LXFE409 sqNSCLC model, FIG. 4, MLN4924 120 mg/kg SC Q2Dx3/week for 3 weeks, docetaxel 10 mg/kg IV QW for 3 weeks, single agents or combination): regrew after the treatment period ended; average tumor volume day 21 (LXFE409 xenograft model; LXFE409 xenograft, 10 mg/kg docetaxel QW IV): 44.6 mm^3; average tumor volume day 21 ([2]; 5 mg/kg docetaxel QW IV): 719.2 mm^3; average tumor volume day 21 ([2]; 10 mg/kg docetaxel QW IV): 282.7 mm^3; Combination Index (NCI-H526): 1.38 ± 0.06
Nc1ccn([C@@H]2O[C@H](CO)[C@@H](O)C2(F)F)c(=O)n1 [gemcitabine] |  |  |  | 1.44 ± 0.07 | −16 ± 3 |  | 0.49 ± 0.1 | 30 ± 3 |  |  |  |  |  | average tumor volume day 18 ([3]; PHTX249Pa xenograft, 20 mg/kg gemcitabine BIW IV): 585.1 mm^3; tumor growth compared to the control vehicle group (in words) ([3]; PHTX249 Pa xenograft, gemcitabine 20 mg/kg IV BIW, MLN4924 90 mg/kg SC BID BIW, single agents or their combination): inhibited tumor growth compared to the control vehicle group; average tumor volume day 22 (PHTX02B xenograft model; 2.5 mg/kg gemcitabine Q3Dx4 IP): 1386.3 mm^3; average tumor volume day 22 (PHTX02B xenograft model; 10 mg/kg gemcitabine Q3Dx4 IP): 769.4 mm^3; tumor growth during the treatment period (in words) (PHTX02B xenograft model; FIG. 2, MLN4924 SC 30 mg/kg BID, gemcitabine 10 mg/kg IP q3dx4, single agents or their combination): inhibited tumor growth compared to the control vehicle group; Combination Index (BxPC3): 1.49; Nonlinear Blending (BxPC3): −26.0; Combination Index (PANC1): 0.24; Nonlinear Blending (PANC1): 19.4; Combination Index (MIA PaCa-2): 1.15; Nonlinear Blending (MIA PaCa-2): −8.1
O=C1[O][Pt]2([NH][C@@H]3CCCC[C@H]3[NH]2)[O]C1=O [oxaliplatin] |  | 6 ± 2 | 2 ± 3 |  |  | 2 ± 2 |  |  | 10 ± 5 | 11 ± 3 |  | −5 ± 2 | −8 ± 4 | 
CC(=O)O[C@H]1C(=O)[C@@]2(C)[C@H]([C@H](OC(=O)c3ccccc3)[C@]3(O)C[C@H](OC(=O)[C@H](O)[C@@H](NC(=O)c4ccccc4)c4ccccc4)C(C)=C1C3(C)C)[C@]1(OC(C)=O)CO[C@@H]1C[C@@H]2O [paclitaxel] |  | −16 ± 2 | −22 ± 4 |  | −6 ± 0.9 |  |  | −14 ± 2 |  | −16 ± 4 |  | −8 ± 3 | −26 ± 3 | 
